Like-named read-outs stand apart in the source and are kept apart here.
Test system: K. pneumoniae
Assay: MIC versus efflux impaired strains
Assay type: cell-based, Klebsiella pneumoniae
Experimental: MIC determinations were performed using the broth microdilution method and in line with CLSI guidelines M07 and M100 (refs. [37],[38]). Bacterial inocula were prepared by diluting a 0.5 McFarland suspension in CAMHB or lysogeny broth (LB) specifically for A. baylyi isolates. […] MIC values of all of the tested antibiotics were read as the lowest compound concentration inhibiting bacterial growth by naked eye or beyond which the OD600 ceased to decrease.

## CN1C(=O)[C@H](CCCCN)NC(=O)[C@H](CCCN)NCc2cccnc2Sc2c(Cl)ccc(Cl)c2CNC(=O)[C@@H]1Cc1c[nH]c2ccccc12 [RO7075573]
K. pneumoniae 1161486a, efflux impaired, Δ acrAB
  MIC: >64 µg/mL
Klebsiella pneumoniae, K. pneumoniae 1161486, WT, read-out: MIC
  MIC: > 64 µg/mL
